Usually EC50 stands for the midpoint of the concentration-response curve. For orientation: Emax means the greatest response seen or fitted, relative to the assay's reference.

EC50 and Emax data for 18 compounds are collected here from patent US20260098026A1, “M4 ACTIVATORS/MODULATORS AND USES THEREOF” (Cerevel Therapeutics, LLC, priority 2022, published 2026).

Test [1] concerns the target T1, M3 muscarinic acetylcholine receptor (mAChR) (Homo sapiens, UniProt P20309).
T1 construct: expressed in transfected cells; host or cells: CHO-K1
The test can be described thus: FLIPR calcium assay (Fluo 8), M3-overexpressing CHO-K1 cells. Particulars: FLIPR. Type of test: cell-based. In outline:
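CHO-K1 cells overexpressing each human receptor seeded at 15,000 per well, grown overnight at 37° C., 5% CO2, then loaded with Fluo-8 for 30 min. Compounds in HBSS added and calcium response read on FLIPR; EC50 and Emax calculated per subtype.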

In test [2] the target is T2, M4 mAChR (Homo sapiens, UniProt P08173).
T2 construct: expressed in transfected cells; host or cells: CHO-K1
T2 sequence (P08173 1-479): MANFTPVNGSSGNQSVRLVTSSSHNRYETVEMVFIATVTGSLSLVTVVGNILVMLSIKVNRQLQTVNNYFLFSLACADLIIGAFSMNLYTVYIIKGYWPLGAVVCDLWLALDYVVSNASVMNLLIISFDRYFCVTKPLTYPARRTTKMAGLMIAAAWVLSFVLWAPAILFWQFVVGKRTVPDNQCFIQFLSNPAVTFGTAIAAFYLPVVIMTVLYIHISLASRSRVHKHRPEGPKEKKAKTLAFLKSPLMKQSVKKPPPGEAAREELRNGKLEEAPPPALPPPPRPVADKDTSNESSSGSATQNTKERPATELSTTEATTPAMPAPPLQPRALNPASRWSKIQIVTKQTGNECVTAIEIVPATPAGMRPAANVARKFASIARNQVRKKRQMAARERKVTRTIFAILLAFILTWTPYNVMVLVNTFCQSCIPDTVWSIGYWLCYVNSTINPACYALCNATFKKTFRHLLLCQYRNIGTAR
The test can be described thus: cAMP TR-FRET assay with forskolin, M4-overexpressing CHO-K1 cells. It counts as cell-based. The note with it: cAMP assay. In a few lines: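 CHO-K1 cells overexpressing the receptor were stimulated with forskolin to raise cAMP, so that Gi-mediated agonist decreases could be measured. cAMP was quantified by TR-FRET competition between cellular cAMP and labelled donor for anti-cAMP antibody, giving potency and efficacy.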
A general note: TR-FRET usually uses a lanthanide donor and a delayed reading to cut background.

The structures appear in SMILES notation.

T1 sequence (P20309 whole entry): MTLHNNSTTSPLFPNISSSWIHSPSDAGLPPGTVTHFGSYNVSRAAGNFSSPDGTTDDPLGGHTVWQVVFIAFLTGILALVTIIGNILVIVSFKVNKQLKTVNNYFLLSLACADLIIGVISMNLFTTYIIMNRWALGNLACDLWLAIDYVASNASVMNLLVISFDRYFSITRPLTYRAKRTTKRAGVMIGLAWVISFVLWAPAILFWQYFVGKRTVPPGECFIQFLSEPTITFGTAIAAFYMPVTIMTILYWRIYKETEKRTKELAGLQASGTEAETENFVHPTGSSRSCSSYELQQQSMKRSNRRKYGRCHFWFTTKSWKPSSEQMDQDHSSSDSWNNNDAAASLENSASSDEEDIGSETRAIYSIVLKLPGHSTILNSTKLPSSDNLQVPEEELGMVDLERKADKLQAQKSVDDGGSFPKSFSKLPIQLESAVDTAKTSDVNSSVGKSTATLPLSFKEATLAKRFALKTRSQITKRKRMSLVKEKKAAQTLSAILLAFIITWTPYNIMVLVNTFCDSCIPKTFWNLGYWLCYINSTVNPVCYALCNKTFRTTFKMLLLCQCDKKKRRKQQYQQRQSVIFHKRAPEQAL

As to `CCOC(=O)N1CC2(CC[C@@H](N3CCN(c4cc(Cl)cnc4-c4ccc(C)nn4)CC3)C2)C1` [Compound A251], in test [1], the EC50 was more than 10 µM. Also, the Emax in test [2] was 80 to 100%.

As for `CCOC(=O)N1CC2(CC[C@@H](N3CCN(c4cc(Cl)cnc4-c4ccc(F)cn4)CC3)C2)C1` [Compound A252], the EC50 in test [1] was more than 10 µM. Also, the maximal response (Emax) in test [2] was in the range of 80 to 100%.

As to `CCOC(=O)N1CC2(CC[C@@H](N3CCN(c4cc(F)cnc4-c4cnc(C(F)F)cn4)CC3)C2)C1` [Compound A253], the EC50 in test [1] was more than 10 µM. Also, the Emax in test [2] is 80 to 100%.

For `CCOC(=O)N1CC2(CC[C@@H](N3CCN(c4cc(C)cnc4-c4cnccn4)CC3)C2)C1` [Compound A255], the EC50 in test [1] is more than 10 µM. In addition, the Emax in test [2] lay in the range of 80 to 100%.

In the case of `CCOC(=O)N1CC2(CC[C@@H](N3CCN(c4cc(Cl)cnc4-c4cn(C)nn4)CC3)C2)C1` [Compound A256], the EC50 in test [1] is more than 10 µM. The compound further displayed an Emax in test [2] of 80 to 100%.

For the compound `CCOC(=O)N1CC2(CC[C@@H](N3CCN(c4cc(Cl)cnc4-c4cnn(C(C)C)n4)CC3)C2)C1` [Compound A258], the EC50 in test [1] was more than 10 µM. Moreover, the Emax in test [2] is 50 to 79.9%.

On to `CCOC(=O)N1CC2(CC[C@@H](N3CCN(c4cc(F)cnc4-c4ccc(Cl)cn4)CC3)C2)C1` [Compound A259], for which the EC50 in test [1] was more than 10 µM. The Emax in test [2] fell in the range of 80 to 100%.

In the case of `CCOC(=O)N1CC2(CC[C@@H](N3CCN(c4cc(C#N)cnc4-c4cnccn4)CC3)C2)C1` [Compound A272], in test [1], the EC50 is more than 10 µM. The same compound returned an Emax in test [2] of 19 to 49.9%.

In the case of `CCOC(=O)N1CC2(CC[C@@H](N3CCN(c4cc(F)cnc4C4CCN(C)CC4)CC3)C2)C1` [Compound A273], the EC50 in test [1] was more than 10 µM. This compound showed an Emax in test [2] of 80 to 100%.

Regarding `CCOC(=O)N1CC2(CC[C@H](N3CCN(c4cc(F)cnc4C4CCOCC4)CC3)C2)C1` [Compound A274], the EC50 in test [1] is more than 10 µM. The Emax in test [2] is 80 to 100%.

`CCOC(=O)N1CC2(CC[C@@H](N3CCN(c4cc(Cl)cnc4C4CC5(COC5)C4)CC3)C2)C1` [Compound A279]: in test [1], the EC50 is more than 10 µM. This compound yielded an Emax in test [2] of 80 to 100%.

`CCOC(=O)N1CC2(CC[C@@H](N3CCN(c4cc(F)cnc4-c4ncccc4F)CC3)C2)C1` [Compound A283]: the EC50 in test [1] is more than 10 µM. Further, the Emax in test [2] lay within 80 to 100%.

As to `CCOC(=O)N1CC2(CC[C@@H](N3CCN(c4cc(F)cnc4-c4ccnc(F)n4)CC3)C2)C1` [Compound A284], the EC50 in test [1] is more than 10 µM. The Emax in test [2] was in the range of 80 to 100%.

For the compound `CCOC(=O)N1CC2(CC[C@@H](N3CCN(c4cc(F)cnc4-c4cnn(C(F)(F)F)c4)CC3)C2)C1` [Compound A285], the concentration for a half-maximal effect (EC50) in test [1] was more than 10 µM. In test [2], this compound showed an Emax of 80 to 100%.

In the case of `CCOC(=O)N1CC2(CC[C@@H](N3CCN(c4cc(F)cnc4NC4CC5(COC5)C4)CC3)C2)C1` [Compound A288], the EC50 in test [1] was more than 10 µM. In test [2], the Emax fell in the range of 19 to 49.9%.

Take `CCOC(=O)N1CC2(CC[C@@H](N3CCN(c4cc(F)cnc4-n4cnc(C)c4)CC3)C2)C1` [Compound A290]: the EC50 in test [1] is more than 10 µM. The Emax in test [2] was in the range of 80 to 100%.

On to `CCOC(=O)N1CC2(CC[C@@H](N3CCN(c4cc(F)cnc4-n4ccc(C)n4)CC3)C2)C1` [Compound A291], for which, in test [1], the EC50 was more than 10 µM. The Emax in test [2] is 50 to 79.9%.

Regarding `CCOC(=O)N1CC2(CC[C@H](N3CCC(c4cc(F)cnc4-c4ccc(F)cn4)CC3)C2)C1` [Compound A293], the EC50 in test [1] was more than 10 µM. The Emax in test [2] fell in the range of 80 to 100%.
